# Molecular target: T1, streptavidin (Streptomyces avidinii, UniProt P22629)
# T1 construct: purchased GE Healthcare (Little Chalfont, UK)
# Assay: Cy5-streptavidin binding on HotSpot discovery array, 5-mer L-peptide library
# Details: 5-mer L-peptide library array, Cy5-streptavidin; from average of three arrays
# Description: To identify hotspot sequences that bind to streptavidin (SA), we bound Cy5-SA to an array library of 2,476,099 5-mer L-peptides synthesized with 19 of 20 natural amino acids (excluding cysteine). The fluorescence signal intensity was aggregated across three independently synthesized arrays; then the 2,047 peptides with a signal-to-background ratio (S/B) >4 were selected. The data was further filtered to select 1,100 peptides for which signal intensities were highly correlated on all 3 arrays (the percentage of mean deviation to mean was <10%, see Supplementary dataset Table 2A). Most selected sequences (1,019 of 1,100) contained HP, PQ, or PM sequences: their presence would be expected in the well-known HPQ and HPM streptavidin binders[13]–[18].
# The comprehensive peptide library included 2,476,099 5-mer peptides synthesized in a single copy with 19 of 20 L- or D-amino acids (excluding cysteine). Libraries were flanked on both N- and C-termini by linkers of 1 or 3 amino acids using a 3:1 glycine-serine mixture.
# Cy5™-streptavidin (Cy5-SA) was purchased from GE Healthcare (Little Chalfont, UK). Freshly deprotected arrays were used in each experiment. Streptavidin binding to all arrays was performed with 0.5 µg/ml Cy5-SA either in binding buffer containing 10 mM Tris-HCl (pH 7.4), 1% alkali-soluble casein (EMD Millipore), 0.05% Tween-20 or in 10 mM Tris-HCl (pH 7.4), 4% BSA (Roche, Basel, Switzerland), 0.05% Tween-20 in a 30 mL PAP Jar container (Evergreen Scientific, Vernon, CA) overnight at 4° C. After incubation, arrays were washed in 20 mM Tris-HCl (pH 7.8), 0.2 M NaCl, 1% SDS or 1X TBS (pH 7.4) for 30 sec followed by a 1 min wash in water, and then dried by spinning in a microcentrifuge equipped with an array holder.
# Cy5 fluorescence intensity of the arrays was measured with an MS200 scanner (Roche NimbleGen, Madison, WI) at resolution 2 µm, wavelength 635 nm, gain 25%, and laser intensity 100%. Cy5 signal intensities were extracted using Image Extraction Software (Roche NimbleGen). Data pre-processing, normalization, and statistical tests were performed using the language R. Data visualization and analysis was performed with the Spotfire 6.5.0 (Tibco, Boston, MA) software platform. Distance analysis and principle component analysis of distance matrices were performed with the R package PEPLIB[19].
# T1 sequence (P22629 25-183): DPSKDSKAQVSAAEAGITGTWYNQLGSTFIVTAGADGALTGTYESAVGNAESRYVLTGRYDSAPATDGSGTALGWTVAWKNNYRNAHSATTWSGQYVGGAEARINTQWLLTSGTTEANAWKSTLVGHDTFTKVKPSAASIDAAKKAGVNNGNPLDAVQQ
row,Substance,S/B (signal to background ratio)
1,FTHPQ,177.7
2,FVHPQ,150.1
3,FWHPQ,176.5
4,FYHPQ,202.7
5,GAHPM,34.1
6,GAHPQ,136.7
7,GFHPQ,181.0
8,GGHPQ,124.2
9,GHHPQ,149.8
10,GHPMV,21.8
11,GHPQF,125.7
12,GHPQG,135.5
13,GHPQM,40.8
14,GHPQY,40.1
15,GLHPQ,132.8
16,GMHPM,38.8
17,GMHPQ,126.3
18,GNHPQ,132.4
19,GPHPQ,144.4
20,GQHPM,43.1

row,Substance,S/B (signal to background ratio)
1,GQHPQ,134.5
2,GRHPQ,136.4
3,GSHPM,43.0
4,GTHPQ,132.9
5,GVHPM,31.6
6,GWHPQ,190.5
7,HDHPM,51.4
8,HFHPQ,174.7
9,HGHPQ,129.3
10,HHHPQ,143.8
11,HHPMF,19.8
12,HHPMN,25.7
13,HHPMS,40.6
14,HHPMY,20.0
15,HHPQA,145.4
16,HHPQI,19.7
17,HHPQN,150.9
18,HHPQQ,45.6
19,HHPQR,35.2
20,HLHPM,40.7

row,Substance,S/B (signal to background ratio)
1,HMHPQ,133.8
2,HNHPM,37.6
3,HNHPQ,146.9
4,HPHPQ,185.1
5,HPMAP,37.9
6,HPMFG,21.9
7,HPMFN,39.1
8,HPMFS,20.6
9,HPMGN,22.1
10,HPMGQ,20.5
11,HPMSG,45.4
12,HPQAA,43.7
13,HPQAF,40.6
14,HPQAG,125.6
15,HPQFG,141.0
16,HPQFL,42.4
17,HPQFP,141.5
18,HPQFR,23.8
19,HPQFS,123.4
20,HPQFW,53.0

# Same assay, conditions: 5-mer L-peptide library array, Cy5-streptavidin; from the average of three arrays
row,Substance,S/B (signal to background ratio)
1,FTHPM,86.0
2,FVHPM,72.0
3,FYHPM,99.8
4,GEHPQ,63.7
5,GHPMG,65.8
6,GHPQA,110.5
7,GHPQV,97.6
8,GIHPQ,100.2
9,GKHPQ,73.5
10,GRHPM,62.1
11,GWHPM,97.0
12,HDHPQ,112.6
13,HEHPQ,76.5
14,HFHPM,76.4
15,HGHPM,69.3
16,HHHPM,67.1

row,Substance,S/B (signal to background ratio)
1,HHPMA,76.0
2,HHPQF,110.3
3,HHPQG,108.6
4,HHPQV,71.9
5,HIHPQ,104.7
6,HKHPQ,86.4
7,HMHPM,61.8
8,HPMGG,60.6
9,HPQAP,82.5
10,HPQFA,113.5
11,HPQFF,71.6
12,HPQFH,64.4
13,HPQFN,113.3
14,HPQFQ,90.6
15,HPQFT,92.5
16,HPQFV,69.2

# Same assay, conditions: 5-mer L-peptide library, from the average of three arrays
row,Substance,S/B (signal to background ratio)
1,FYNFM [L-amino acid 5-mer array peptide],4.7
2,GHPMK,4.0
3,GHPMW,4.4
4,GHPPQ,5.2
5,GHPQP,4.5
6,GLGYH [L-amino acid 5-mer array peptide],4.6
7,GPMPD,4.4
8,HFPQN,4.1
9,HGFPF,4.7
10,HGFPT,4.2
11,HHPGQ,4.3
12,HPAFQ,4.5
13,HPAYT,5.1
14,HPMFI,4.7
15,HPMHM,4.4
16,HPMHW,4.9
17,HPMKP,4.6
18,HPMMF,5.1
19,HPMNH,4.4
20,HPMNY,4.6
21,HPMQF,4.9
22,HPMQH,4.5
23,HPMQS,4.9
24,HPMRA,4.8
25,HPMRF,4.6
26,HPMRH,4.9
27,HPMRT,4.3
28,HPMSR,4.4
29,HPMST,4.2
30,HPMSY,4.8

# Same assay, conditions: average of three arrays, L-peptide 5-mer library
row,Substance,S/B (signal to background ratio)
1,FYNFM [L-amino acid 5-mer array peptide],4.7
2,GLGYH [L-amino acid 5-mer array peptide],4.6
3,GYWTD [L-amino acid 5-mer array peptide],8.4
4,HGFPF,4.7
5,HGFPT,4.2

# Same assay, conditions: signal to background ratio; 5-mer L-peptide library array, Cy5-streptavidin
row,Substance,S/B
1,GEHPM,14.8
2,GHPMF,15.1
3,GHPMM,11.7
4,GHPMY,11.0
5,GHPQK,13.3
6,GHPQW,18.1
7,GYWTD [L-amino acid 5-mer array peptide],8.4
8,HHPMM,18.7
9,HHPQK,18.7
10,HHPQL,5.7
11,HPADF,6.3
12,HPAFM,5.7
13,HPLPW,8.0
14,HPMAF,18.0
15,HPMAM,6.5
16,HPMAQ,7.2
17,HPMFA,17.2
18,HPMFH,6.8
19,HPMFL,5.4
20,HPMFR,5.2
21,HPMFV,7.5
22,HPMFW,6.5
23,HPMGH,15.2

row,Substance,S/B
1,HPMGI,7.9
2,HPMGK,5.3
3,HPMGL,9.0
4,HPMGT,12.0
5,HPMGV,9.2
6,HPMGW,18.2
7,HPMHG,13.1
8,HPMHP,14.9
9,HPMKN,8.2
10,HPMMA,5.3
11,HPMMW,5.7
12,HPMNA,17.1
13,HPMNE,5.7
14,HPMNM,9.1
15,HPMNR,5.6
16,HPMPD,5.4
17,HPMPW,8.2
18,HPMQA,6.4
19,HPMQG,16.2
20,HPMQN,8.8
21,HPMRG,9.3
22,HPMRN,8.8
23,HPMRS,7.0

row,Substance,S/B
1,HPMRW,12.6
2,HPMRY,5.8
3,HPMSA,8.0
4,HPMTP,5.6
5,HPMVA,12.1
6,HPMVF,5.3
7,HPMVS,8.8
8,HPMYA,11.4
9,HPMYF,12.1
10,HPMYH,13.0
11,HPMYM,8.3
12,HPMYP,15.8
13,HPMYQ,5.7
14,HPMYR,5.9
15,HPMYS,8.6
16,HPMYY,8.3
17,HPQAI,10.7
18,HPQAL,10.3
19,HPQAM,18.6
20,HPQAV,17.8
21,HPQDG,15.1
22,HPQFK,17.7
